Activity calls are given as the source filed them. The calls are words filed in the database; no cut-off is given here.
What was measured:
[1] = organism: Homo sapiens; test: Inhibition of beta amyloid-ABAD interaction by ELISA at 1 mM
[2] = Inhibition of beta amyloid-ABAD interaction by ELISA; design: species or system Homo sapiens
[3] = Partition coefficient, log P of the compound; format: physicochemical; conditions: octanol/water

COC(=O)c1cc(C(=O)O)ccc1NC(=O)Nc1nc2ccc(Cl)cc2s1
Activity [1]: Active
IC50 [2]: 22.7 µM

COc1ccc2nc(NC(=O)Nc3ccc(N4CCOCC4)cc3)sc2c1
Activity [1]: Active
IC50 [2]: 250 µM

O=C(Nc1ccc(C(=O)O)c(O)c1)Nc1nc2ccc(Cl)cc2s1
Activity [1]: Active
IC50 [2]: 267 µM

COc1ccc2nc(NC(=O)NCc3ccc4c(c3)OCO4)sc2c1
Activity [1]: Active
IC50 [2]: 26.6 µM

O=C(Nc1ccc(O)cc1)Nc1nc2ccc(OC(F)(F)F)cc2s1
Activity [1]: Active
IC50 [2]: 47.6 µM

O=C(Nc1nc2ccc(Cl)cc2s1)c1cccc(O)c1O
inhibition [1]: < 50%

COC(=O)c1cc(NC(=O)Nc2nc3ccc(OC)cc3s2)ccc1O
Activity [1]: Active
IC50 [2]: 26.3 µM

O=C(Nc1nc2ccc(F)cc2s1)c1cccc(O)c1O
inhibition [1]: < 50%

COc1ccc2nc(NC(=O)c3cccc(OC)c3OC)sc2c1
inhibition [1]: < 50%

O=C(Nc1nc2ccc(F)cc2s1)Nc1ccccc1O
Activity [1]: Active
IC50 [2]: 207 µM

COC(=O)c1cc(NC(=O)Nc2nc3ccc(F)cc3s2)ccc1O
logP [3]: 1.15
Activity [1]: Active
IC50 [2]: 6.56 µM

O=C(Nc1cccnc1)Nc1nc2ccc(Cl)cc2s1
Activity [1]: Active
IC50 [2]: 247 µM

O=C(Nc1cccnc1)Nc1nc2ccc(F)cc2s1
Activity [1]: Active
IC50 [2]: 282 µM

COc1cccc(C(=O)Nc2nc3ccc(Cl)cc3s2)c1OC
inhibition [1]: < 50%

O=C(Nc1nc2ccc(F)cc2s1)c1ccccc1
inhibition [1]: < 50%

COc1ccc2nc(NC(=O)NOc3ccccc3)sc2c1
Activity [1]: Active
IC50 [2]: 316 µM

O=C(Nc1ccc(O)c(C(=O)O)c1)Nc1nc2ccc(OC(F)(F)F)cc2s1
Activity [1]: Active
IC50 [2]: 185 µM

COc1cccc(C(=O)Nc2nc3ccc(F)cc3s2)c1OC
inhibition [1]: < 50%

O=C(Nc1cccnc1)Nc1nc2ccc(OC(F)(F)F)cc2s1
Activity [1]: Active
IC50 [2]: 244 µM

COc1ccc2nc(NC(=O)N3CCN(c4ccc5c(c4)OCO5)CC3)sc2c1
IC50 [2]: 163 µM

COC(=O)c1cc(NC(=O)Nc2nc3ccc(OC(F)(F)F)cc3s2)ccc1O
Activity [1]: Active
IC50 [2]: 244 µM

CCOc1ccc2nc(NC(=O)c3ccccc3)sc2c1
inhibition [1]: < 50%

COc1ccc2nc(NC(=O)c3ccccc3)sc2c1
inhibition [1]: < 50%

Cc1ccc2c(c1)sc(-c1ccc(N(C)C)cc1)[n+]2C
IC50 [2]: 230 µM

COC(=O)c1ccc(NC(=O)Nc2nc3ccc(F)cc3s2)c(I)c1
Activity [1]: Active
IC50 [2]: 286 µM

COc1ccc2nc(NC(=O)Nc3cccnc3)sc2c1
Activity [1]: Active
IC50 [2]: 257 µM

O=C(Nc1ccc(O)c(C(=O)O)c1)Nc1nc2ccc(F)cc2s1
Activity [1]: Active
IC50 [2]: 261 µM

O=C(Nc1nc2ccc(Cl)cc2s1)c1ccccc1
inhibition [1]: < 50%

O=C(Nc1cc(O)c2cc(S(=O)(=O)O)ccc2c1)Nc1nc2ccc(OC(F)(F)F)cc2s1
Activity [1]: Active
IC50 [2]: 29 µM

CCOc1ccc2nc(NC(=O)Nc3ccc(O)c(C(=O)OC)c3)sc2c1
Activity [1]: Active
IC50 [2]: 20.6 µM

COC(=O)c1cc(NC(=O)Nc2nc3ccc(Cl)cc3s2)ccc1O
logP [3]: 1.34
Activity [1]: Active
IC50 [2]: 6.46 µM

COc1ccc2nc(NC(=O)Nc3ccccc3)sc2c1 [FRENTIZOLE]
IC50 [2]: 200 µM

CCOc1ccc2nc(NC(=O)c3cccc(OC)c3OC)sc2c1
inhibition [1]: < 50%

O=C(Nc1cc(O)c2cc(S(=O)(=O)O)ccc2c1)Nc1nc2ccc(Cl)cc2s1
Activity [1]: Active
IC50 [2]: 267 µM

O=C(Nc1nc2ccc(Cl)cc2s1)Nc1ccc(O)cc1O
Activity [1]: Active
IC50 [2]: 23 µM

COC(=O)c1cc(NC(=S)Nc2nc3ccc(OC)cc3s2)ccc1O
IC50 [2]: 15.6 µM

O=C(Nc1nc2ccc(OC(F)(F)F)cc2s1)Nc1ccc(O)cc1O
Activity [1]: Active
IC50 [2]: 53.8 µM

COc1ccc2nc(NC(=O)Nc3ccc(O)c(C(=O)O)c3)sc2c1
Activity [1]: Active
IC50 [2]: 29.5 µM

O=C(Nc1nc2ccc(O)cc2s1)c1cccc(O)c1O
inhibition [1]: < 50%

COc1ccc2nc(NC(=S)Nc3ccccc3)sc2c1
IC50 [2]: 190 µM

Reference: ChEMBL document CHEMBL1148677, “Identification of small-molecule inhibitors of the Abeta-ABAD interaction” (Bioorg Med Chem Lett, 2006)
